Experimental data reported in PubChem BioAssay AID330 (DTP/NCI, 2004).
Several values for one entry are separate records, joined by “and”; a condition that tells them apart may be missing. Equal entries are not always repeated. Inconclusive results and toxic doses are left out. Peptide text beside a SMILES is read from it. * marks the point of attachment. Boc = CC(C)(C)OC(=O)*

System: P388 leukemia ip, CD2F1 mice, survival T/C
Experiment: NCI In Vivo Anticancer Drug Screen. Data for tumor model P388 Leukemia (intraperitoneal) in CD2F1 (CDF1) mice
Details: endpoint: median survival time, higher = longer survival
Outline: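 Mice carrying the transplanted tumor received test compound or vehicle. Survival was recorded in each group, and the value is the treated-group measurement divided by that of the vehicle-treated control group.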

[1] = dose: 100.0 mg/kg/injection, schedule: Q01DX009 (ip), vehicle: saline with Tween-80
[2] = dose: 12.5 mg/kg/injection, schedule: Q01DX009 (ip), vehicle: Klucel (hydroxypropylcellulose) (HPC)
[3] = dose: 50.0 mg/kg/injection, schedule: Q01DX009 (ip), vehicle: saline
[4] = dose: 100.0 mg/kg/injection, schedule: Q01DX009 (ip), vehicle: saline
[5] = dose: 200.0 mg/kg/injection, schedule: Q01DX009 (ip), vehicle: saline
[6] = dose: 50.0 mg/kg/injection, schedule: Q01DX009 (ip), vehicle: saline with Tween-80
[7] = dose: 400.0 mg/kg/injection, schedule: Q01DX009 (ip), vehicle: saline
[8] = dose: 50.0 mg/kg/injection, schedule: Q01DX005 (ip), vehicle: saline with Tween-80
[9] = dose: 50.0 mg/kg/injection, schedule: Q01DX005 (ip), vehicle: Klucel (hydroxypropylcellulose) (HPC)
[10] = dose: 100.0 mg/kg/injection, schedule: Q01DX005 (ip), vehicle: Klucel (hydroxypropylcellulose) (HPC)
[11] = dose: 200.0 mg/kg/injection, schedule: Q01DX005 (ip), vehicle: Klucel (hydroxypropylcellulose) (HPC)

COC(=O)[C@@]12OC[C@]34[C@H]([C@@H](O)[C@@H]1O)[C@@]1(C)CC(=O)C(O)=C(C)[C@@H]1C[C@H]3OC(=O)[C@H](OC(=O)C(Cc1ccccc1)NC(=O)OC(C)(C)C)[C@@H]24 (stereo partly specified)
T/C (dose: 125.0 micrograms/kg/injection, schedule: Q01DX005 (ip), vehicle: Klucel (hydroxypropylcellulose) (HPC)): 113 % of control
T/C (dose: 250.0 micrograms/kg/injection, schedule: Q01DX005 (ip), vehicle: Klucel (hydroxypropylcellulose) (HPC)): 100 % of control
T/C (dose: 500.0 micrograms/kg/injection, schedule: Q01DX005 (ip), vehicle: Klucel (hydroxypropylcellulose) (HPC)): 116 % of control
T/C (dose: 1000.0 micrograms/kg/injection, schedule: Q01DX005 (ip), vehicle: Klucel (hydroxypropylcellulose) (HPC)): 114 % of control

Nc1ccccc1-c1cncnc1N
T/C [1]: 98 % of control
T/C (dose: 200.0 mg/kg/injection, schedule: Q01DX009 (ip), vehicle: saline with Tween-80): 101 % of control
T/C (dose: 400.0 mg/kg/injection, schedule: Q01DX009 (ip), vehicle: saline with Tween-80): 106 % of control

COc1cc2oc3cc(=O)cc4oc(-c5ccccc5)cc(c2c2c1CCC(c1ccccc1)O2)c43 (stereo unspecified)
T/C (dose: 3.25 mg/kg/injection, schedule: Q01DX005 (ip), vehicle: Klucel + Tween-80): 98 % of control
T/C (dose: 6.5 mg/kg/injection, schedule: Q01DX005 (ip), vehicle: Klucel + Tween-80): 99 % of control
T/C (dose: 13.0 mg/kg/injection, schedule: Q01DX005 (ip), vehicle: Klucel + Tween-80): 103 % of control
T/C (dose: 26.0 mg/kg/injection, schedule: Q01DX005 (ip), vehicle: Klucel + Tween-80): 107 % of control

O=NNc1ccc(Oc2ccc(NN=O)cc2)cc1
T/C (dose: 3.12 mg/kg/injection, schedule: Q01DX009 (ip), vehicle: water): 96 % of control
T/C (dose: 6.25 mg/kg/injection, schedule: Q01DX009 (ip), vehicle: water): 96 % of control
T/C (dose: 12.5 mg/kg/injection, schedule: Q01DX009 (ip), vehicle: water): 92 % of control
T/C (dose: 25.0 mg/kg/injection, schedule: Q01DX009 (ip), vehicle: water): 100 % of control and 93 % of control
T/C (dose: 50.0 mg/kg/injection, schedule: Q01DX009 (ip), vehicle: water): 100 % of control and 93 % of control
T/C (dose: 100.0 mg/kg/injection, schedule: Q01DX009 (ip), vehicle: water): 91 % of control
T/C (dose: 200.0 mg/kg/injection, schedule: Q01DX009 (ip), vehicle: water): 88 % of control

O=[N+]([O-])c1ccc(S(=O)/N=C/c2ccccc2)c([N+](=O)[O-])c1 (stereo unspecified)
T/C [2]: 119 % of control
T/C (dose: 25.0 mg/kg/injection, schedule: Q01DX009 (ip), vehicle: Klucel (hydroxypropylcellulose) (HPC)): 118 % of control

CC1=NN(c2ccc(S(=O)(=O)O)cc2)C(=O)C1N=Nc1ccc(-c2ccc(N=Nc3ccc(OS(=O)(=O)c4ccc(C)cc4)cc3)c(S(=O)(=O)O)c2)cc1 (stereo unspecified)
T/C [3]: 100 % of control
T/C [4]: 100 % of control
T/C [5]: 97 % of control

CN=C(C)c1c(O)n(-c2ccccc2)[nH]c1=O
T/C (dose: 100.0 mg/kg/injection, schedule: Q04DX002 (ip), vehicle: Klucel (hydroxypropylcellulose) (HPC)): 96 % of control
T/C (dose: 200.0 mg/kg/injection, schedule: Q04DX002 (ip), vehicle: Klucel (hydroxypropylcellulose) (HPC)): 102 % of control
T/C (dose: 400.0 mg/kg/injection, schedule: Q04DX002 (ip), vehicle: Klucel (hydroxypropylcellulose) (HPC)): 90 % of control

CCOC(=O)c1cccc([N+](=O)[O-])c1C(=O)OCCN(CC)CC
T/C (dose: 100.0 mg/kg/injection, schedule: Q04DX002 (ip), vehicle: saline with Tween-80): 100 % of control
T/C (dose: 200.0 mg/kg/injection, schedule: Q04DX002 (ip), vehicle: saline with Tween-80): 122 % of control

Cc1ccc(SC2=C(Sc3ccc(C)cc3)C(=O)c3ccccc3C2=O)cc1
T/C (dose: 25.0 mg/kg/injection, schedule: Q01DX009 (ip), vehicle: saline with Tween-80): 102 % of control and 88 % of control
T/C [6]: 116 % of control and 96 % of control
T/C [1]: 99 % of control and 123 % of control

CN(C)C(=S)SCc1ccc(C(=O)O)nc1
T/C [6]: 99 % of control
T/C [1]: 98 % of control

C=C1CC2(OC1=O)C1CC3CC(C1)CC2C3 (stereo unspecified)
T/C (dose: 100.0 mg/kg/injection, schedule: Q04DX002 (ip), vehicle: saline): 99 % of control
T/C (dose: 200.0 mg/kg/injection, schedule: Q04DX002 (ip), vehicle: saline): 98 % of control
T/C (dose: 400.0 mg/kg/injection, schedule: Q04DX002 (ip), vehicle: saline): 99 % of control

CSc1nc(NC2OCC(O)C(O)C2O)c(Cl)c(=O)n1C (stereo unspecified)
T/C (dose: 60.0 mg/kg/injection, schedule: Q01DX005 (ip), vehicle: saline with Tween-80): 103 % of control
T/C (dose: 120.0 mg/kg/injection, schedule: Q01DX005 (ip), vehicle: saline with Tween-80): 104 % of control
T/C (dose: 240.0 mg/kg/injection, schedule: Q01DX005 (ip), vehicle: saline with Tween-80): 100 % of control

O=C1OC(C(O)CO)C(O)=C1OC[N+]1(CCCl)CCN(CCCl)CC1 (stereo unspecified)
T/C [3]: 100 % of control and 110 % of control
T/C [4]: 108 % of control and 116 % of control
T/C [5]: 123 % of control
T/C [7]: 157 % of control

O=[N+]([O-])c1cnc(Sc2ccncn2)s1
T/C (dose: 1.56 mg/kg/injection, schedule: Q01DX009 (ip), vehicle: saline): 103 % of control
T/C (dose: 3.12 mg/kg/injection, schedule: Q01DX009 (ip), vehicle: saline): 108 % of control
T/C (dose: 6.25 mg/kg/injection, schedule: Q01DX009 (ip), vehicle: saline): 100 % of control and 87 % of control
T/C (dose: 12.5 mg/kg/injection, schedule: Q01DX009 (ip), vehicle: saline): 93 % of control

OC1OC2COC(c3ccccc3)OC2C(O)C1O (stereo unspecified)
T/C (dose: 25.0 mg/kg/injection, schedule: Q01DX005 (ip), vehicle: water): 100 % of control
T/C (dose: 50.0 mg/kg/injection, schedule: Q01DX005 (ip), vehicle: water): 100 % of control
T/C (dose: 100.0 mg/kg/injection, schedule: Q01DX005 (ip), vehicle: water): 100 % of control
T/C (dose: 200.0 mg/kg/injection, schedule: Q01DX005 (ip), vehicle: water): 101 % of control
T/C (dose: 400.0 mg/kg/injection, schedule: Q01DX005 (ip), vehicle: water): 107 % of control
T/C (dose: 800.0 mg/kg/injection, schedule: Q01DX005 (ip), vehicle: water): 95 % of control

COc1cc(N(C)c2cc(=O)n(C)c(=O)[nH]2)ccc1C
T/C (dose: 12.5 mg/kg/injection, schedule: Q01DX005 (ip), vehicle: saline with Tween-80): 101 % of control
T/C (dose: 25.0 mg/kg/injection, schedule: Q01DX005 (ip), vehicle: saline with Tween-80): 101 % of control
T/C [8]: 100 % of control and 94 % of control

O=C1CN(c2cccc(Cl)c2)C(=O)CN1/N=C/c1ccccn1
T/C [8]: 100 % of control
T/C (dose: 100.0 mg/kg/injection, schedule: Q01DX005 (ip), vehicle: saline with Tween-80): 106 % of control
T/C (dose: 200.0 mg/kg/injection, schedule: Q01DX005 (ip), vehicle: saline with Tween-80): 100 % of control

CCN(CC)CCCC(C)Nc1cc(/C=C/c2ccc(Cl)cc2)nc2cc(N(C)C)ccc12 (stereo unspecified)
T/C (dose: 3.12 mg/kg/injection, schedule: Q01DX009 (ip), vehicle: Klucel (hydroxypropylcellulose) (HPC)): 107 % of control
T/C (dose: 6.25 mg/kg/injection, schedule: Q01DX009 (ip), vehicle: Klucel (hydroxypropylcellulose) (HPC)): 110 % of control
T/C [2]: 98 % of control and 102 % of control

O=C(O)CCC(=O)O
T/C (dose: 10.0 mg/kg/injection, schedule: Q01DX009 (ip), vehicle: water): 90 % of control
T/C (dose: 20.0 mg/kg/injection, schedule: Q01DX009 (ip), vehicle: water): 99 % of control and 109 % of control
T/C (dose: 40.0 mg/kg/injection, schedule: Q01DX009 (ip), vehicle: water): 98 % of control and 94 % of control
T/C (dose: 80.0 mg/kg/injection, schedule: Q01DX009 (ip), vehicle: water): 96 % of control and 91 % of control
T/C (dose: 160.0 mg/kg/injection, schedule: Q01DX009 (ip), vehicle: water): 101 % of control and 102 % of control

CC(C)c1ccc(C2C3CCN2CC3)cc1 (stereo unspecified)
T/C [3]: 91 % of control

CC(=O)Nc1ccc(S(=O)(=O)c2ccc(NC(C)=O)s2)s1
T/C [9]: 98 % of control
T/C [10]: 95 % of control
T/C [11]: 89 % of control

CCC(C)C(NC(=O)OC(C)(C)C)C(=O)NC(CCSC)C(N)=O (stereo not drawn) (Boc-Ile-Met-NH2; configuration not given here)
T/C [9]: 97 % of control
T/C [10]: 95 % of control
T/C [11]: 89 % of control

Cc1[nH]ccc(=O)c1O
T/C (dose: 16.0 mg/kg/injection, schedule: Q01DX009 (ip), vehicle: saline with Tween-80): 105 % of control
T/C (dose: 32.0 mg/kg/injection, schedule: Q01DX009 (ip), vehicle: saline with Tween-80): 110 % of control
T/C [3]: 123 % of control
T/C [4]: 124 % of control
T/C [5]: 153 % of control
T/C [7]: 98 % of control
T/C (dose: 512.0 mg/kg/injection, schedule: Q01DX009 (ip), vehicle: saline with Tween-80): 91 % of control
